# Source: patent US20220323406A1, “METHODS AND COMPOSITIONS FOR DIFFERENTIATING STEM CELLS” (Massachusetts Institute of Technology, priority 2019, published 2022)
# Legend:
# ENR+CD organoids = assay: Primary screen: ATP (CellTiter-Glo 3D, CTG) cell number/viability, 2.5-D 384-well ENR+CD organoids; settings: primary screen; for Z.CTG: standard z score;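 as to all read-outs here: compounds given at plating and again on day 3 over a 6-day differentiation from ENR+CV stem-cell-enriched precursors, ATP measured on day 6, plate median as control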
# [1] = test system: ENR+CD organoids (ISC to Paneth cell differentiation); assay: Primary screen: CCh-stimulated lysozyme secretion LYZ.S, 2.5-D 384-well ENR+CD organoid differentiation; type: cell-based, mouse; settings: primary screen
# Source text: (§1) High-throughput screening.
# [2] = test system: ENR+CD organoids (ISC to Paneth cell differentiation); assay: Primary screen: basal (non-stimulated) lysozyme secretion LYZ.NS, 2.5-D 384-well ENR+CD organoid differentiation; type: cell-based, mouse
# Source text: as §1
# [3] = dose 0.08 uM, FC relative to plate median
# [4] = dose 0.40 uM, FC relative to plate median
# [5] = dose 2.00 uM, FC relative to plate median
# [6] = dose 10.00 uM, FC relative to plate median
# [7] = primary screen, dose 0.08 uM, standard z score
# [8] = primary screen, dose 0.40 uM, standard z score
# [9] = primary screen, dose 2.00 uM, standard z score
# [10] = primary screen, dose 10.00 uM, standard z score
# [11] = dose 0.08 uM, FC vs plate median
# [12] = dose 0.40 uM, FC vs plate median
# [13] = dose 2.00 uM, FC vs plate median
# [14] = dose 10.00 uM, FC vs plate median
smiles,measurement,setting,value
COc1cc(-c2ncn(/C=C\C(=O)OC(C)C)n2)cc(C(F)(F)F)c1 [KPT-185],Dose.FC.CTG (log2 fold change),ENR+CD organoids; dose 0.08 uM,0.116
same,Z.CTG (standard z score),ENR+CD organoids; dose 0.08 uM,0.277
same,Dose.FC.CTG (log2 fold change),ENR+CD organoids; dose 0.40 uM,0.104
same,Z.CTG (standard z score),ENR+CD organoids; dose 0.40 uM,0.248
same,Dose.FC.CTG (log2 fold change),ENR+CD organoids; dose 2.00 uM,−0.995
same,Z.CTG (standard z score),ENR+CD organoids; dose 2.00 uM,−2.377
same,Dose.FC.CTG (log2 fold change),ENR+CD organoids; dose 10.00 uM,−0.855
same,Z.CTG (standard z score),ENR+CD organoids; dose 10.00 uM,−2.041
same,Dose.FC.LYZ.S (log2 fold change),[1]; dose 0.08 uM,−0.015
same,Dose.FC.LYZ.S (log2 fold change),[1]; dose 0.40 uM,0.220
same,Dose.FC.LYZ.S (log2 fold change),[1]; dose 2.00 uM,−0.322
same,Dose.FC.LYZ.S (log2 fold change),[1]; dose 10.00 uM,−0.153
same,Dose.FC.LYZ.NS (log2 fold change),"[2]; primary screen, dose 0.08 uM",−0.006
same,Z.LYZ.NS (standard z score),"[2]; primary screen, dose 0.08 uM",−0.049
same,Dose.FC.LYZ.NS (log2 fold change),"[2]; primary screen, dose 0.40 uM",0.097
same,Z.LYZ.NS (standard z score),"[2]; primary screen, dose 0.40 uM",0.846
same,Dose.FC.LYZ.NS (log2 fold change),"[2]; primary screen, dose 2.00 uM",−0.209
same,Z.LYZ.NS (standard z score),"[2]; primary screen, dose 2.00 uM",−1.820
same,Dose.FC.LYZ.NS (log2 fold change),"[2]; primary screen, dose 10.00 uM",−0.085
same,Z.LYZ.NS (standard z score),"[2]; primary screen, dose 10.00 uM",−0.744
COc1cc2c(cc1OC)CN(CCc1ccc(NC(=O)c3cc(OC)c(OC)cc3NC(=O)c3cnc4ccccc4c3)cc1)CC2 [Tariquidar],Dose.FC.CTG,ENR+CD organoids; [3],−0.117 log2 fold change
same,Dose.FC.CTG,ENR+CD organoids; [4],0.054 log2 fold change
same,Dose.FC.CTG,ENR+CD organoids; [5],0.376 log2 fold change
same,Dose.FC.CTG,ENR+CD organoids; [6],0.227 log2 fold change
same,Dose.FC.LYZ.S,[1]; [3],0.040 log2 fold change
same,Dose.FC.LYZ.S,[1]; [4],0.073 log2 fold change
same,Dose.FC.LYZ.S,[1]; [5],0.059 log2 fold change
same,Dose.FC.LYZ.S,[1]; [6],0.019 log2 fold change
same,Dose.FC.LYZ.NS,"[2]; primary screen, dose 0.08 uM, FC relative to plate median",0.053 log2 fold change
same,Z.LYZ.NS,[2]; [7],0.465
same,Dose.FC.LYZ.NS,"[2]; primary screen, dose 0.40 uM, FC relative to plate median",0.037 log2 fold change
same,Z.LYZ.NS,[2]; [8],0.326
same,Dose.FC.LYZ.NS,"[2]; primary screen, dose 2.00 uM, FC relative to plate median",0.031 log2 fold change
same,Z.LYZ.NS,[2]; [9],0.270
same,Dose.FC.LYZ.NS,"[2]; primary screen, dose 10.00 uM, FC relative to plate median",0.034 log2 fold change
same,Z.LYZ.NS,[2]; [10],0.292
O=C(O)/C=C/c1ccc(Cn2ccnc2)cc1 [Ozagrel],Dose.FC.CTG,ENR+CD organoids; [11],0.055 log2 fold change
same,Dose.FC.CTG,ENR+CD organoids; [12],0.224 log2 fold change
same,Dose.FC.CTG,ENR+CD organoids; [13],−0.063 log2 fold change
same,Dose.FC.CTG,ENR+CD organoids; [14],0.113 log2 fold change
same,Dose.FC.LYZ.S,[1]; [11],0.145 log2 fold change
same,Dose.FC.LYZ.S,[1]; [12],0.096 log2 fold change
same,Dose.FC.LYZ.S,[1]; [13],0.104 log2 fold change
same,Dose.FC.LYZ.S,[1]; [14],0.011 log2 fold change
same,Z.LYZ.NS,[2]; [7],0.645
same,Z.LYZ.NS,[2]; [8],0.381
same,Z.LYZ.NS,[2]; [9],0.698
same,Z.LYZ.NS,[2]; [10],−0.068
same,Dose.FC.LYZ.NS,[2]; primary screen; dose 0.08 uM; FC vs plate median,0.074 log2 fold change
same,Dose.FC.LYZ.NS,[2]; primary screen; dose 0.40 uM; FC vs plate median,0.044 log2 fold change
same,Dose.FC.LYZ.NS,[2]; primary screen; dose 2.00 uM; FC vs plate median,0.080 log2 fold change
same,Dose.FC.LYZ.NS,[2]; primary screen; dose 10.00 uM; FC vs plate median,−0.008 log2 fold change
"COc1cc2c(cc1Cc1cccc(Cl)c1F)c(=O)c(C(=O)O)cn2[C@H](CO)C(C)C [Elvitegravir (GS-9137, JTK-303)]",Dose.FC.CTG,ENR+CD organoids; dose 0.08 uM,−0.001 log2 fold change
same,Dose.FC.CTG,ENR+CD organoids; dose 0.40 uM,−0.040 log2 fold change
same,Dose.FC.CTG,ENR+CD organoids; dose 2.00 uM,−0.344 log2 fold change
same,Dose.FC.CTG,ENR+CD organoids; dose 10.00 uM,−0.737 log2 fold change
same,Z.CTG,ENR+CD organoids; dose 0.08 uM,−0.001
same,Z.CTG,ENR+CD organoids; dose 0.40 uM,−0.095
same,Z.CTG,ENR+CD organoids; dose 2.00 uM,−0.823
same,Z.CTG,ENR+CD organoids; dose 10.00 uM,−1.760
same,Dose.FC.LYZ.S,[1]; dose 0.08 uM,−0.010 log2 fold change
same,Dose.FC.LYZ.S,[1]; dose 0.40 uM,0.092 log2 fold change
same,Dose.FC.LYZ.S,[1]; dose 2.00 uM,−0.126 log2 fold change
same,Dose.FC.LYZ.S,[1]; dose 10.00 uM,−0.135 log2 fold change
same,Dose.FC.LYZ.NS,"[2]; primary screen, dose 0.08 uM",−0.047 log2 fold change
same,Dose.FC.LYZ.NS,"[2]; primary screen, dose 0.40 uM",−0.069 log2 fold change
same,Dose.FC.LYZ.NS,"[2]; primary screen, dose 2.00 uM",−0.094 log2 fold change
same,Dose.FC.LYZ.NS,"[2]; primary screen, dose 10.00 uM",−0.090 log2 fold change
same,Z.LYZ.NS,"[2]; primary screen, standard z score, dose 0.08 uM",−0.412
same,Z.LYZ.NS,"[2]; primary screen, standard z score, dose 0.40 uM",−0.598
same,Z.LYZ.NS,"[2]; primary screen, standard z score, dose 2.00 uM",−0.821
same,Z.LYZ.NS,"[2]; primary screen, standard z score, dose 10.00 uM",−0.782
